Values joined by “and” are separate entries in the source; they are usually repeats but may differ in a detail not shown here. Identical values can stand only once.
Tested on: NCI-H1876 complex spheroid viability
Assay: Anticancer human tumor NCI-H1876 cell line growth inhibition [LSD1];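 note: spheroids exposed to compounds for one week before readout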;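 for viability, T/C: 100% = DMSO vehicle-treated spheroids so lower means fewer viable cells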
Conditions: for viability, T/C: stronger effect = lower value
Method in brief: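 Multicellular complex spheroids of tumor cells with human endothelial cells (HUVEC) and mesenchymal stem cells; the LSD1 inhibitor iadademstat was combined with standard-of-care or investigational agents. Top concentration at or near clinical Cmax, half-log dilutions; final DMSO ≤0.25%.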

[1] = curve of first compound, second compound 0.1 µM
[2] = curve of first compound, second compound 0.316 µM
[3] = curve of first compound, second compound 1 µM
[4] = curve of first compound, second compound 3.16 µM
[5] = curve of first compound, second compound 10 µM
[6] = second compound 0.1 µM, first compound 0.00316 µM
[7] = second compound 0.1 µM, first compound 0.01 µM
[8] = second compound 0.1 µM, first compound 0.0316 µM
[9] = second compound 0.1 µM, first compound 0.1 µM
[10] = second compound 0.1 µM, first compound 0.316 µM
[11] = second compound 0.1 µM, first compound 1 µM
[12] = second compound 0.316 µM, first compound 0.00316 µM
[13] = second compound 0.316 µM, first compound 0.01 µM
[14] = second compound 0.316 µM, first compound 0.0316 µM
[15] = second compound 0.316 µM, first compound 0.1 µM
[16] = second compound 0.316 µM, first compound 0.316 µM
[17] = second compound 0.316 µM, first compound 1 µM
[18] = second compound 1 µM, first compound 0.00316 µM
[19] = second compound 1 µM, first compound 0.01 µM
[20] = second compound 1 µM, first compound 0.0316 µM
[21] = second compound 1 µM, first compound 0.1 µM
[22] = second compound 1 µM, first compound 0.316 µM
[23] = second compound 1 µM, first compound 1 µM
[24] = second compound 3.16 µM, first compound 0.00316 µM
[25] = second compound 3.16 µM, first compound 0.01 µM
[26] = second compound 3.16 µM, first compound 0.0316 µM
[27] = second compound 3.16 µM, first compound 0.1 µM
[28] = second compound 3.16 µM, first compound 0.316 µM
[29] = second compound 3.16 µM, first compound 1 µM
[30] = second compound 10 µM, first compound 0.00316 µM
[31] = second compound 10 µM, first compound 0.01 µM
[32] = second compound 10 µM, first compound 0.0316 µM
[33] = second compound 10 µM, first compound 0.1 µM
[34] = second compound 10 µM, first compound 0.316 µM
[35] = second compound 10 µM, first compound 1 µM

CC1COCCN1c1cc(C2(S(C)(=N)=O)CC2)nc(-c2ccnc3[nH]ccc23)n1 (stereo not drawn)
viability, T/C (compound 0.0316 µM): 103% and 104%
viability, T/C (compound 0.1 µM): 109% and 102%
viability, T/C (compound 0.316 µM): 102% and 103%
viability, T/C (compound 1 µM): 102% and 105%
viability, T/C (compound 3.16 µM): 80.3% and 74.2%
viability, T/C (compound 10 µM): 28.5% and 23.1%
IC50 (curve of compound): 6200 nM and 5450 nM

CCc1c2c(nc3ccc(O)cc13)-c1cc3c(c(=O)n1C2)COC(=O)[C@]3(O)CC
viability, T/C (compound 0.000949 µM): 8.16% and 5.21%
viability, T/C (compound 0.003 µM): 6.7% and 3.21%
viability, T/C (compound 0.00949 µM): 3.77% and 1.73%
viability, T/C (compound 0.03 µM): 0.82% and 0.45%
viability, T/C (compound 0.0949 µM): 0.56% and 0.42%
viability, T/C (compound 0.3 µM): 0.51% and 0.41%
IC50 (curve of compound): < 0.949 nM

O=C(c1cc(Cc2n[nH]c(=O)c3ccccc23)ccc1F)N1CCN(C(=O)C2CC2)CC1
viability, T/C (compound 0.0316 µM): 99.1% and 93.9%
viability, T/C (compound 0.1 µM): 96% and 96.3%
viability, T/C (compound 0.316 µM): 91.3% and 97.4%
viability, T/C (compound 1 µM): 85.9% and 91.3%
viability, T/C (compound 3.16 µM): 65.4% and 68.3%
viability, T/C (compound 10 µM): 33.4% and 36.2%
IC50 (curve of compound): 5540 nM and 6100 nM

Nc1ncn(C2CC(O)C(CO)O2)c(=O)n1 (stereo not drawn) + NC1CC1c1ccc(-c2cccc(O)c2)cc1
IC50 [1]: > 1000 nM
IC50 [2]: > 1000 nM
IC50 [3]: > 1000 nM
IC50 [4]: > 1000 nM
IC50 [5]: > 1000 nM
viability, T/C [6]: 109%
viability, T/C [7]: 103%
viability, T/C [8]: 105%
viability, T/C [9]: 98.6%
viability, T/C [10]: 91%
viability, T/C [11]: 101%
viability, T/C [12]: 113%
viability, T/C [13]: 110%
viability, T/C [14]: 105%
viability, T/C [15]: 99%
viability, T/C [16]: 96%
viability, T/C [17]: 94.3%
viability, T/C [18]: 106%
viability, T/C [19]: 114%
viability, T/C [20]: 106%
viability, T/C [21]: 102%
viability, T/C [22]: 104%
viability, T/C [23]: 101%
viability, T/C [24]: 106%
viability, T/C [25]: 113%
viability, T/C [26]: 107%
viability, T/C [27]: 99.1%
viability, T/C [28]: 94.3%
viability, T/C [29]: 89.8%
viability, T/C [30]: 109%
viability, T/C [31]: 107%
viability, T/C [32]: 103%
viability, T/C [33]: 108%
viability, T/C [34]: 93.4%
viability, T/C [35]: 92.1%

COc1cc(Nc2ncc3c(n2)-c2ccc(Cl)cc2C(c2c(F)cccc2OC)=NC3)ccc1C(=O)O + NC1CC1c1ccc(-c2cccc(O)c2)cc1
IC50 [1]: 28.5 nM
IC50 [2]: 37 nM
IC50 [3]: 35.9 nM
IC50 [4]: 30.1 nM
IC50 [5]: 41.2 nM
viability, T/C [6]: 69.2%
viability, T/C [7]: 61.6%
viability, T/C [8]: 48.2%
viability, T/C [9]: 35.7%
viability, T/C [10]: 30.2%
viability, T/C [11]: 16.3%
viability, T/C [12]: 64.9%
viability, T/C [13]: 64.5%
viability, T/C [14]: 50.2%
viability, T/C [15]: 37.5%
viability, T/C [16]: 26%
viability, T/C [17]: 15.8%
viability, T/C [18]: 78.4%
viability, T/C [19]: 62.1%
viability, T/C [20]: 51.5%
viability, T/C [21]: 40.5%
viability, T/C [22]: 27.1%
viability, T/C [23]: 16.2%
viability, T/C [24]: 65.9%
viability, T/C [25]: 58.4%
viability, T/C [26]: 49.8%
viability, T/C [27]: 38.5%
viability, T/C [28]: 27.9%
viability, T/C [29]: 15%
viability, T/C [30]: 64.3%
viability, T/C [31]: 62.1%
viability, T/C [32]: 53.1%
viability, T/C [33]: 38.7%
viability, T/C [34]: 31.1%
viability, T/C [35]: 17.2%

CC(C)c1c(-c2ccccc2)nc2c(C#N)c[nH]n2c1=O + NC1CC1c1ccc(-c2cccc(O)c2)cc1
IC50 [1]: 7370 nM
IC50 [2]: 7730 nM
IC50 [3]: 7780 nM
IC50 [4]: 6290 nM
IC50 [5]: 4800 nM
viability, T/C [8]: 97.2%
viability, T/C [9]: 96.2%
viability, T/C [10]: 97.3%
viability, T/C [11]: 93.2%
viability, T/C (second compound 0.1 µM, first compound 3.16 µM): 87.2%
viability, T/C (second compound 0.1 µM, first compound 10 µM): 36.5%
viability, T/C [14]: 99.3%
viability, T/C [15]: 102%
viability, T/C [16]: 102%
viability, T/C [17]: 111%
viability, T/C (second compound 0.316 µM, first compound 3.16 µM): 91%
viability, T/C (second compound 0.316 µM, first compound 10 µM): 38.2%
viability, T/C [20]: 102%
viability, T/C [21]: 101%
viability, T/C [22]: 101%
viability, T/C [23]: 106%
viability, T/C (second compound 1 µM, first compound 3.16 µM): 98.5%
viability, T/C (second compound 1 µM, first compound 10 µM): 36.5%
viability, T/C [26]: 101%
viability, T/C [27]: 98.2%
viability, T/C [28]: 96.6%
viability, T/C [29]: 96.5%
viability, T/C (second compound 3.16 µM, first compound 3.16 µM): 87.3%
viability, T/C (second compound 3.16 µM, first compound 10 µM): 24.8%
viability, T/C [32]: 84.7%
viability, T/C [33]: 85.7%
viability, T/C [34]: 91.2%
viability, T/C [35]: 88%
viability, T/C (second compound 10 µM, first compound 3.16 µM): 73.2%
viability, T/C (second compound 10 µM, first compound 10 µM): 9.44%

COc1cc(C2c3cc4c(cc3C(OC3OC5COC(C)OC5C(O)C3O)C3COC(=O)C23)OCO4)cc(OC)c1O (stereo not drawn)
viability, T/C (compound 0.00949 µM): 85.4% and 93.8%
viability, T/C (compound 0.03 µM): 69.1% and 57.3%
viability, T/C (compound 0.0949 µM): 30.5% and 20.9%
viability, T/C (compound 0.3 µM): 32.1% and 11.1%
viability, T/C (compound 0.949 µM): 26.4% and 8.9%
viability, T/C (compound 3 µM): 11.7% and 9%
IC50 (curve of compound): 54 nM and 37.8 nM

O=C(C=Cc1cccc(S(=O)(=O)Nc2ccccc2)c1)NO + NC1CC1c1ccc(-c2cccc(O)c2)cc1
IC50 [1]: 165 nM
IC50 [2]: 165 nM
IC50 [3]: 171 nM
IC50 [4]: 178 nM
IC50 [5]: 157 nM
viability, T/C (second compound 0.1 µM, first compound 0.00949 µM): 110%
viability, T/C (second compound 0.1 µM, first compound 0.03 µM): 111%
viability, T/C (second compound 0.1 µM, first compound 0.0949 µM): 81.1%
viability, T/C (second compound 0.1 µM, first compound 0.3 µM): 16.3%
viability, T/C (second compound 0.1 µM, first compound 0.949 µM): 6.97%
viability, T/C (second compound 0.1 µM, first compound 3 µM): 0.3%
viability, T/C (second compound 0.316 µM, first compound 0.00949 µM): 107%
viability, T/C (second compound 0.316 µM, first compound 0.03 µM): 115%
viability, T/C (second compound 0.316 µM, first compound 0.0949 µM): 80.4%
viability, T/C (second compound 0.316 µM, first compound 0.3 µM): 16.8%
viability, T/C (second compound 0.316 µM, first compound 0.949 µM): 5.12%
viability, T/C (second compound 0.316 µM, first compound 3 µM): 0.27%
viability, T/C (second compound 1 µM, first compound 0.00949 µM): 114%
viability, T/C (second compound 1 µM, first compound 0.03 µM): 109%
viability, T/C (second compound 1 µM, first compound 0.0949 µM): 85.6%
viability, T/C (second compound 1 µM, first compound 0.3 µM): 15.9%
viability, T/C (second compound 1 µM, first compound 0.949 µM): 5.57%
viability, T/C (second compound 1 µM, first compound 3 µM): 0.28%
viability, T/C (second compound 3.16 µM, first compound 0.00949 µM): 111%
viability, T/C (second compound 3.16 µM, first compound 0.03 µM): 111%
viability, T/C (second compound 3.16 µM, first compound 0.0949 µM): 87.8%
viability, T/C (second compound 3.16 µM, first compound 0.3 µM): 18.4%
viability, T/C (second compound 3.16 µM, first compound 0.949 µM): 5.71%
viability, T/C (second compound 3.16 µM, first compound 3 µM): 0.36%
viability, T/C (second compound 10 µM, first compound 0.00949 µM): 108%
viability, T/C (second compound 10 µM, first compound 0.03 µM): 102%
viability, T/C (second compound 10 µM, first compound 0.0949 µM): 71.7%
viability, T/C (second compound 10 µM, first compound 0.3 µM): 21.7%
viability, T/C (second compound 10 µM, first compound 0.949 µM): 5.51%
viability, T/C (second compound 10 µM, first compound 3 µM): 0.42%

From PubChem BioAssay AID1918957 (Molecular Pharmacology Branch, DTP, NCI, 2023)
